For 41 molecules, IC50 results are on record in patent publication US20050137220A1 (Pharmacia Corporation, priority 2003, published 2005).

“And” between values parts separate entries of the source, which are not always exact repeats. Equal entries are not always repeated. Structures can show the parent of a compound that is named as a salt.

In the first test the target is MK-2 (Homo sapiens, UniProt P49137). The experiment in a line: Determination of MK-2 IC50 (phosphorylation of HSP-peptide, anion exchange resin capture assay). It is filed as biochemical. The following applies: MK-2 Avg. IC50, additional values are replicate IC50 experiments; mixture of stereoisomers implied unless otherwise noted.
MK-2, sequence (P49137 whole entry, species assumed): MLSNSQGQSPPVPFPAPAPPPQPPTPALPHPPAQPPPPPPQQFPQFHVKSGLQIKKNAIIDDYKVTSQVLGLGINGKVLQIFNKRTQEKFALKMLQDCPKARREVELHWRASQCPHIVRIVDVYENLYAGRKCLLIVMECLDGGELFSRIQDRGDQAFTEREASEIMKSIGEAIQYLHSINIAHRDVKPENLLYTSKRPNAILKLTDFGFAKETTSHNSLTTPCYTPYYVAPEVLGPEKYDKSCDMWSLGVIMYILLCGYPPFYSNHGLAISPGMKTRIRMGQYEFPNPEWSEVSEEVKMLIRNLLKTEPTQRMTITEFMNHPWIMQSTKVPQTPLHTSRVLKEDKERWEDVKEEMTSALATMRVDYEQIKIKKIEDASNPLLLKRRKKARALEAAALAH
In general, IC50 refers to the midpoint of a concentration-inhibition curve. For the molecule `COc1ccc2[nH]c3c(c2c1)CCNC3=S` [Example 97, 6-methoxy-2,3,4,9-tetrahydro-1H-beta-carboline-1-thione], the IC50 worked out at 34.8 µM.

Still in this test, the particulars now being: additional values are replicate IC50 experiments; mixture of stereoisomers implied unless otherwise noted; read-out: MK-2 Avg. IC50.
As to `CCOC(=O)c1cccc2c3c([nH]c12)CCNC3=O` [Example 96, ethyl 1-oxo-2,3,4,5-tetrahydro-1H-pyrido[4,3-b]indole-6-carboxylate], the 50% inhibitory concentration (IC50) came to 34.5 µM. Take `CCOC(=O)C1(C(=O)OCC)NCCc2c1[nH]c1ccc(OC)cc21` [Example 171, diethyl 6-methoxy-2,3,4,9-tetrahydro-1H-beta-carboline-1,1-dicarboxylate]: the IC50 is more than 200 µM.

With `CCOC(=O)C1c2[nH]c3ccccc3c2CCN1C(=O)c1ccc(OC)o1` (centres unmarked) [Example 211, 1h-Pyrido[3,4-B]Indole-1-Carboxylic Acid, 2,3,4,9-Tetrahydro-2-[(5-Methoxy-2-Furanyl)Carbonyl]-,Ethyl Ester], the IC50 is more than 200 µM.

Consider `COc1ccc2[nH]c3c(c2c1)CCC3=NO` [Example 132, 7-methoxy-1,4-dihydrocyclopenta[b]indol-3(2H)-one oxime], for which the IC50 was determined as 104 µM.

With `COc1ccc([N+](=O)[O-])c2c3c(n(C)c12)C(=O)NCC3` [Example 259, 8-methoxy-9-methyl-5-nitro-2,3,4,9-tetrahydro-1H-beta-carbolin-1-one], the IC50 is more than 200 µM. As to `COc1ccc2[nH]c3c(c2c1)CCNC3CC#N` (stereo not drawn) [Example 231, (6-methoxy-2,3,4,9-tetrahydro-1H-beta-carbolin-1-yl)acetonitrile], the IC50 is more than 200 µM. Take `COc1ccc2c3c([nH]c2c1)C(=O)NCC3` [Example 264, 7-methoxy-2,3,4,9-tetrahydro-1H-beta-carbolin-1-one]: the IC50 was more than 200 µM.

`COc1ccc2[nH]c3c(c2c1)CCN1COC(=O)C31` (centres unmarked) [Example 236, 8-methoxy-5,6,11,11b-tetrahydro-1H-[1,3]oxazolo[3′,4′:1,2]pyrido[3,4-b]indol-1-one]: the IC50 was more than 200 µM. With `COC1=C(C#N)Cc2c([nH]c3ccc(OC)cc23)C(=O)N1` [Example 269, 3,7-dimethoxy-1-oxo-1,2,5,10-tetrahydroazepino[3,4-b]indole-4-carbonitrile], the IC50 is more than 200 µM.

Take `C=CCN1CCc2c([nH]c3ccc(OC)cc23)C1C(=O)OC` (stereo not drawn) [Example 225, methyl 2-allyl-6-methoxy-2,3,4,9-tetrahydro-1H-beta-carboline-1-carboxylate]: the IC50 was more than 200 µM.

As for `COc1ccc2[nH]c3c(c2c1)CCN1CCNC(=O)C31` (centres unmarked) [Example 192, 9-methoxy-3,4,6,7,12,12b-hexahydropyrazino[1′,2′:1,2]pyrido[3,4-b]indol-1(2H)-one], the IC50 was more than 200 µM. On to `COc1ccc2[nH]c3c(c2c1)CCN(C(=O)OCc1ccccc1)C3C(=O)O` (stereo not drawn) [Example 219, 2-[(benzyloxy)carbonyl]-6-methoxy-2,3,4,9-tetrahydro-1H-beta-carboline-1-carboxylic acid], for which the IC50 was more than 200 µM.

For the molecule `COc1ccc2[nH]c3c(c2c1)CCNC3C(N)=O` (stereo not drawn) [Example 220, 6-methoxy-2,3,4,9-tetrahydro-1H-beta-carboline-1-carboxamide], the IC50 was more than 200 µM. Same read-out and setting: for `CCOC(=O)CNC(=O)COc1ccc2[nH]c3c(c2c1)CCNC3C(=O)O` (stereo not drawn) [Example 155, 6-[2-(2-ethoxy-2-oxoethylamino)-2-oxoethoxy]-2,3,4,9-tetrahydro-1H-beta-carboline-1-carboxylic acid hydrochloride] the value was 164 µM. Take `NNC(=O)c1ccc2[nH]c3c(c2c1)CCNC3C(=O)O` (stereo not drawn) [Example 107, 6-(hydrazinocarbonyl)-2,3,4,9-tetrahydro-1H-beta-carboline-1-carboxylic acid]: the IC50 was determined as 48.6 µM. For `COC(=O)CC1CC2(C(=O)OC)c3[nH]c4ccccc4c3CCN2C1=O` (centres unmarked) [Example 213, 1h-Indolizino[8,7-B]Indole-2-Acetic Acid, 2,3,5,6,11,11b-(Methoxycarbonyl)-3-Oxo-, Methyl Ester], the IC50 was more than 200 µM.

Regarding `O=C(O)C1(Cc2ccc3c(c2)OCO3)NCCc2c1[nH]c1ccccc21` (stereo not drawn) [Example 204, 1-[(benzodioxolan-5-yl)methyl]-2,3,4,9-tetrahydro-1H-beta-carboline-1-carboxylic acid], the IC50 is more than 200 µM. On to `COc1ccc2[nH]c3c(c2c1)C1(CCCCC1)CNC3C(=O)O` (centres unmarked) [Example 186, 2′,3′,4′,9′-tetrahydro-6′-methoxy-spiro[cyclohexane-1,4′-[4H]pyrido[3,4-b]indole]-1-carboxylic acid], for which the IC50 is more than 200 µM. On to `COC(=O)C1c2c(c3cc(OC)ccc3n2CO)CCN1C` (stereo not drawn) [Example 169, methyl 9-(hydroxymethyl)-6-methoxy-2-methyl-2,3,4,9-tetrahydro-1H-beta-carboline-1-carboxylate], for which the IC50 is more than 200 µM.

In the case of `CCOC(=O)C1Cc2c([nH]c3ccc(OC)cc23)C(C(=O)O)N1` (stereo not drawn) [Example 177, 3-(ethoxycarbonyl)-6-methoxy-2,3,4,9-tetrahydro-1H-beta-carboline-1-carboxylic acid], the 50% inhibitory concentration (IC50) was more than 200 µM.

As to `CN1CCc2c([nH]c3ccc(OCc4ccccc4)cc23)C1C(=O)O` (stereo not drawn) [Example 36, sodium 6-(benzyloxy)-2-methyl-2,3,4,9-tetrahydro-1H-beta-carboline-1-carboxylate], the concentration for half-maximal inhibition (IC50) was 4.83 µM and 4.96 µM. On the same count and under the same terms, for `COc1ccc2[nH]c3c(c2c1C)CCNC3C(=O)O` (stereo not drawn) [Example 183, 6-methoxy-5-methyl-2,3,4,9-tetrahydro-1H-beta-carboline-1-carboxylic acid hydrochloride] the value was more than 200 µM; for `COc1ccc2[nH]c3c(c2c1)CCNC3C(F)(F)F` (stereo not drawn) [Example 224, 6-methoxy-1-(trifluoromethyl)-2,3,4,9-tetrahydro-1H-beta-carboline], more than 200 µM. As for `O=C1NCCc2c1[nH]c1ccc(C#Cc3ccccc3)cc21` [Example 248, 6-(phenylethynyl)-2,3,4,9-tetrahydro-1H-beta-carbolin-1-one], the IC50 was more than 200 µM. As to `COC(=O)C1c2[nH]c3ccc(OC)cc3c2CCN1C(=O)C(F)(F)F` (stereo not drawn) [Example 207, methyl 6-methoxy-2-(trifluoroacetyl)-2,3,4,9-tetrahydro-1H-beta-carboline-1-carboxylate], the IC50 is more than 200 µM. For the molecule `COC(=O)CCC1Cc2c([nH]c3ccc(OC)cc23)C(=O)N1` (stereo not drawn) [Example 147, methyl 3-(6-methoxy-1-oxo-2,3,4,9-tetrahydro-1H-beta-carbolin-3-yl)propanoate], the IC50 worked out at 136 µM. On the same count and under the same terms, for `COc1ccc2[nH]c3c(c2c1)CCN(Cc1ccc(C(F)(F)F)cc1)C3C(=O)O` (stereo not drawn) [Example 141, 6-methoxy-2-[4-(trifluoromethyl)benzyl]-2,3,4,9-tetrahydro-1H-beta-carboline-1-carboxylic acid] the value was 119 µM; for `COc1ccc2[nH]c3c(c2c1)CC(CCCO)NC3=O` (stereo not drawn) [Example 81, 3-(3-hydroxypropyl)-6-methoxy-2,3,4,9-tetrahydro-1H-beta-carbolin-1-one], 20.4 µM; for `COc1ccc2[nH]c3c(c2c1)CC(C(F)(F)F)NC3C(=O)O` (stereo not drawn) [Example 205, 6-methoxy-3-(trifluoromethyl)-2,3,4,9-tetrahydro-1H-beta-carboline-1-carboxylic acid], more than 200 µM. Take `COc1ccc2[nH]c3c(c2c1)CCN1C3C(=O)NC1(C)C` (centres unmarked) [Example 180, 8-methoxy-3,3-dimethyl-2,3,5,6,11,11b-hexahydro-1H-imidazo[1′,5′:1,2]pyrido[3,4-b]indol-1-one]: the IC50 is more than 200 µM. Consider `COc1ccc2[nH]c3c(=O)[nH]ccc3c2c1` [Example 95, 6-methoxy-2,9-dihydro-1H-beta-carbolin-1-one], for which the IC50 was 31.8 µM. Turning to `COC(=O)C1(C)NCCc2c1[nH]c1ccccc21` (stereo not drawn) [Example 235, methyl 1-methyl-2,3,4,9-tetrahydro-1H-beta-carboline-1-carboxylate], the IC50 was more than 200 µM. Regarding `COc1ccc2[nH]c3c(c2c1)CCNC3CC(=O)O` (stereo not drawn) [Example 165, (6-methoxy-2,3,4,9-tetrahydro-1H-beta-carbolin-1-yl)acetic acid hydrochloride], the IC50 is more than 200 µM. Consider `O=C1NCCc2c1[nH]c1ccc(Cl)cc21` [Example 125, 1H-Pyrido[3,4-b]indol-1-one, 6-chloro-2,3,4,9-tetrahydro- or 6-chloro-2,3,4,9-tetrahydro-1H-beta-carbolin-1-one], for which the IC50 stood at 89.6 µM. On to `COC(=O)C1c2[nH]c3ccc(OC)cc3c2CCN1Cc1ccccc1` (stereo not drawn) [Example 168, methyl 2-benzyl-6-methoxy-2,3,4,9-tetrahydro-1H-beta-carboline-1-carboxylate], for which the IC50 was more than 200 µM. Take `CN1CCc2c(n(-c3ccccc3)c3ccccc23)C1=O` [Example 257, 2-methyl-9-phenyl-2,3,4,9-tetrahydro-1H-beta-carbolin-1-one]: the IC50 was more than 200 µM. The same measure, in the same setting: as for `COc1ccc2[nH]c3c(c2c1)C(Cc1ccc(OC(F)(F)F)cc1)CNC3C(=O)O` (stereo not drawn) [Example 185, 6-methoxy-4-[4-(trifluoromethoxy)benzyl]-2,3,4,9-tetrahydro-1H-beta-carboline-1-carboxylic acid], the figure is more than 200 µM. For the molecule `O=C(O)C1NCCc2c1[nH]c1ccc(OCc3ccc(C(F)(F)F)cc3)cc21` (stereo not drawn) [Example 138, 6-{[4-(trifluoromethyl)benzyl]oxy}-2,3,4,9-tetrahydro-1H-beta-carboline-1-carboxylic acid hydrochloride hydrate], the IC50 is 115 µM. Turning to `COc1ccc2c3c([nH]c2c1)C(Cc1ccc(OC)c(OC)c1OC)(C(=O)O)NCC3` (stereo not drawn) [Example 203, 7-methoxy-1-[(2,3,4-trimethoxyphenyl)methyl]-2,3,4,9-tetrahydro-1H-beta-carboline-1-carboxylic acid, acetate (1:1)], the half-maximal inhibitory concentration (IC50) is more than 200 µM. For `CC(C)(C)OC(=O)N1CCN(C(=O)c2cccc3[nH]c4c(c23)CCNC4=O)CC1` [Example 267, tert-butyl 4-[(1-oxo-2,3,4,9-tetrahydro-1H-beta-carbolin-5-yl)carbonyl]piperazine-1-carboxylate], the IC50 is more than 200 µM.
